Data as given in patent US6596497B1, “Screening of antiviral compounds targeted to the HIV-1 gp41 core structure” (New York Blood Center, Inc., priority 1999, dated 2003).
Values after ≈ are worked out from the molar mass of the structure shown. Where two headings read alike, the source gives them in different places.

Key:
[1] = molecular target: T1, N-36/C-34 complex (HIV-1 gp41 core) (Human immunodeficiency virus type 1 group M subtype B, UniProt P04578); assay: biochemical; assay type: binding; conditions: for Inhibitory activity on complex formation by N-36 and C-34 (in words): no concentration stated; for Inhibition of NC-1 detectable complex formation by N-36 and C-34 (in words): compounds at 10 μg/ml, FIG. 13
T1 construct: Peptides derived from the NHR and CHR regions of gp41, designated N- and C-peptides; made in house; host or cells: chemical synthesis (solid-phase FMOC)
Experimental: For detection of peptide complexes, a direct and a sandwich ELISA were used. In the direct ELISA, the N- and C-peptides were mixed at equimolar concentration in PBS and diluted in coating buffer. Then, the peptide complexes were directly coated onto the wells of microplate. In the sandwich ELISA, the plate was coated with IgG (10 μg/ml) purified from rabbit antisera directed against N36(L6)C34, followed by the addition of the peptide complexes formed by mixing N- and C-peptides in PBS in equimolar concentrations. To screen for antiviral agents, compounds were pre-incubated with N-peptides at 37° C. for 30 minutes before mixing with the C-peptides. The binding of the peptide complexes to the antibodies was then detected as described above.
The percentage of inhibition by the compounds of the binding of NC-1 to the peptide complexes was calculated as described in Jiang, S., K. Lin, and A. R. Neurath, 1991, “Enhancement of human immunodeficiency virus type-1 (HIV-1) infection by antisera to peptides from the envelope glycoproteins gp120/gp41”, J. Exp. Med., 174, 1557-1563.
A sandwich ELISA was established to screen for compounds that interfere with the formation of the N-36/C-34 complex. N-36 (2 μM) was preincubated with compounds at graded concentrations at 37° C. for 30 minutes, followed by the addition of C-34 (2 μM). After incubation at 37° C. for 30 minutes, the mixture was added to wells of a 96-well polystyrene plate (Immulon I, Dynatech Laboratories, Inc., Chantilly, Va.) which were precoated with IgG (10 μg/ml) purified from rabbit antisera directed against N36(L6)C34. […] Absorbance at 450 nm (A450) was read using an ELISA reader (Dynatech Laboratories, Inc., Chantilly, Va.). The percentage of inhibition by the compounds of the binding of NC-1 to the peptide complexes was calculated as described in Jiang S., K. Lin, and A. R. Neurath, 1991, “Enhancement of human immunodeficiency virus type-1 (HIV-1) infection by antisera to peptides from the envelope glycoproteins gp120/gp41”, J. Exp. Med., 174, 1557-1563. The concentration for 50% inhibition (IC50) was calculated using a computer program, designated Calcusyn (Chou, T.-C., 1991, “The median-effect principle and the combination index for quantitation of synergism and antagonism. In Synergism and Antagonism in Chemotherapy”, T.-C. Chou and D. C. Rideout, editors, Academic Press, San Diego, 61-102).

[2] = test system: H9/HIV-1IIIB cells and MT-2 cells; assay: cells; assay type: cell-based; conditions: for IC50: Human immunodeficiency virus 1, MT2, 2 h, read-out: IC50 ± SD Cell fusion; for Inhibitory activity on HIV-1-mediated cell fusion (in words): no concentration stated; for Inhibition of HIV-1-mediated cell fusion (in words): compounds at 10 μg/ml, FIG. 13
Experimental: A dye transfer assay was used for detection of HIV-1-mediated cell fusion as described in Jiang et al., Nature, 365, 113 (1993). H9/HIV-1IIIB cells were labeled with a fluorescent reagent, 2′,7′-bis-(2-carboxyethyl)-5-and-6-carboxyfluorescein acetoxyethyl ester (BCECF-AM), (Molecular Probes, Inc., Eugene, Oreg.) and incubated with MT-2 cells (ratio=1:10) in a 96-well plate at 37° C. for 2 hours in the presence or absence of peptides or compounds tested. The fused and unfused BCECF-labeled HIV-1 infected cells were counted under an inverted fluorescence microscope (Zeiss, Germany) with an eyepiece micrometer discs. The percentage of inhibition of cell fusion was calculated as described in Jiang et al., 1993, Nature, 365, 113.
A dye transfer assay was used for detection of HIV-1 mediated cell fusion as described in Jiang, S., K. Lin, N. Strick, and A. R. Neurath, 1993, Inhibition of HIV-1 infection by a fusion domain binding peptide from HIV-1 envelope glycoprotein gp41, Biochem. Biophys. Res. Commun., 195, 533-538.
H9/HIV-1IIIB cells were labeled with a fluorescent reagent, 2′,7′-bis-(2-carboxyethyl)-5-and-6-carboxyfluorescein acetoxyethyl ester (BCECF-AM) (Molecular Probes, Inc., Eugene, Oreg.) and then incubated with MT-2 cells (ratio=1:10) in 96-well plates at 37° C. for 2 hours in the presence or absence of the compounds tested. The fused and unfused BCECF-labeled HIV-1 infected cells were counted under an inverted fluorescence microscope (Zeiss, Germany) with an eyepiece micrometer disc. The percentage of inhibition of cell fusion and the IC50 values were calculated as described in Jiang et al., (1993), Biochem. Biophys. Res. Commun., 195, 533-538.

[3] = test system: HIV-1IIIB; assay: HIV-1-mediated cytopathic effect (CPE), XTT; assay type: cell-based; conditions: for selectivity ratio at 6 days: human, read-out: Selective Index (S.I.) = CC50/IC50 for CPE
Experimental: The inhibitory activity of the compounds was determined by a calorimetric method based on protection of cells against HIV-1-mediated CPE, as described in Jiang et al., (1991), J. Exp. Med., 174, 1557-1563. 1×10^4 MT-2 cells in 96-well plates were infected with diluted HIV-1IIIB in 200 μl RPMI 1640 medium containing 10% FBS in the presence of compounds at graded concentrations. After 1 hour, 24 hours and 4 days, half of the culture media were changed. On the sixth day post infection, an indicator, XTT tetrazolium dye (1 mg/ml; 50 μl/well; PolySciences, Inc., Warrington, Pa.), was added to the cells. After 4 hours, the soluble intracellular formazan was determined calorimetrically at 450 nm. The percent of inhibition of CPE and the IC50 values were calculated as described above.

[4] = In vitro cytotoxicity, XTT; assay type: cell-based; conditions: human
Experimental: The in vitro cytotoxicity for MT-2 cells of the compounds was determined in 96-well plates using the XTT dye to measure cell viability in the absence of virus. Ten μl of 5% TRITON X-100 were added to the wells corresponding to positive controls (“P”) and 10 μl medium was added to wells corresponding to negative controls (“N”). The percent cytotoxicity was calculated using the following formula: % cytotoxicity=[(E−N)/(P−N)]×100%, wherein “E” represents experimental data in the presence of compounds. The concentration corresponding to 50% cytotoxicity (CC50) for MT-2 cells was calculated using the Calcusyn computer program. The selectivity index (S.I.=CC50/IC50) for each compound was calculated.

[5] = Human immunodeficiency virus 1, MT2, read-out: IC50 ± SD CPE
[6] = 50% cytotoxic concentration, MT-2 cells, no virus, read-out: CC50 ± SD
[7] = Human immunodeficiency virus 1, MT2, MT-2 cells, sixth day post infection, read-out: IC50 ± SD CPE

T1 sequence (P04578 546-581, one chain of several): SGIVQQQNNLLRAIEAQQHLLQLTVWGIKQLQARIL

Compound | IC50 [1] [µM] | Inhibitory activity on complex formation by N-36 and C-34 (in words) [1] | IC50 [2] [µg/mL] | Inhibitory activity on HIV-1-mediated cell fusion (in words) [2] | IC50 [3, 5] [µg/mL] | selectivity ratio at 6 days ([3]; MT-2 cells) | Inhibitory activity on HIV-1-mediated CPE (in words) ([3]; no concentration stated) | CC50 [4, 6] [µg/mL] | IC50 [3, 7] [µg/mL] | CC50 [4] [µg/mL] | Inhibition of NC-1 detectable complex formation by N-36 and C-34 (in words) [1] | Inhibition of HIV-1-mediated cell fusion (in words) [2]
Cc1ccc(N=Nc2c(S(=O)(=O)O)cc3cc(S(=O)(=O)O)cc(Nc4nc(Cl)nc(Nc5ccccc5)n4)c3c2O)c(S(=O)(=O)O)c1 [ADS-J2, 5-[(4-chloro-6-phenylamino-1,3,5-triazine-2-yl)-amino]-4-hydroxy-3-[(4-methyl-6-sulfophenyl)azo]-2,7-naphthalene disulfonic acid] | 4.4 | promising inhibitory activity | 21.9 ± 1.38 (≈ 30.3 µM) | promising inhibitory activity | 30.8 ± 6.74 (≈ 42.6 µM) | 9.43 | promising inhibitory activity | 290 ± 12.4 (≈ 402 µM) | – | – | – | –
C=CC1C[N@@]2CCC1C[C@@H]2C(OC(=O)c1ccc(OC)cc1)c1ccnc2ccccc12 (stereo partly shown) [ADS-J4] | > 233 | – | > 100 | – | – | ≤ 1 | – | – | > 100 | 74.1 ± 0.76 (≈ 173 µM) | – | –
CC(c1nc2ccc(Cl)cc2c(=O)n1Cc1ccccc1)N(C(=O)c1ccc([N+](=O)[O-])cc1)c1ccc(F)cc1 (stereo not shown) [ADS-J5] | > 180 | – | > 100 | – | > 100 | ≤ 1 | – | 30.2 ± 4.84 (≈ 54.2 µM) | – | – | – | –
C/C(=N/OC(=O)NS(=O)(=O)c1ccc(C)cc1)c1cc2ccccc2oc1=O [ADS-J6] | > 250 | – | > 100 | – | > 100 | ≤ 1 | – | 286 ± 19.3 (≈ 714 µM) | – | – | – | –
CCC1C[N@@]2CCC1C[C@@H]2C(OC(=O)c1ccccc1Cl)c1ccnc2ccc(OC)cc12 (stereo partly shown) [ADS-J7] | > 215 | – | 59.8 ± 8.69 (≈ 129 µM) | – | – | ≤ 1 | – | – | > 100 | 41.3 ± 2.38 (≈ 88.9 µM) | – | –
O=C(Nc1cc([N+](=O)[O-])ccc1-c1ccc([N+](=O)[O-])cc1)c1ccc([N+](=O)[O-])cc1Cl [ADS-J9] | > 226 | – | > 100 | – | > 100 | ≤ 1 | – | 47.2 ± 5.48 (≈ 107 µM) | – | – | – | –
O=C(Nc1ccc(Cl)c(Cl)c1)O/N=C(/c1ccccc1)c1ccc(-c2ccccc2)cc1 [ADS-J10] | > 217 | – | > 100 | – | > 100 | ≤ 1 | – | 74.7 ± 6.04 (≈ 162 µM) | – | – | – | –
Cc1ccc(N(C(=O)Nc2ccccc2)C(C)c2nc3ccccc3c(=O)[nH]2)c(C)c1 (stereo not shown) [ADS-J11] | > 242 | – | > 100 | – | > 100 | ≤ 1 | – | 40.8 ± 1.67 (≈ 98.8 µM) | – | – | – | –
Cc1ccc(N(C(=O)Nc2cccc(Cl)c2)C(C)c2nc3ccccc3c(=O)[nH]2)c(C)c1 (stereo not shown) [ADS-J12] | > 224 | – | > 100 | – | > 100 | ≤ 1 | – | 54 ± 8.14 (≈ 121 µM) | – | – | – | –
Cc1ccc(N(C(=O)Nc2ccc(Cl)c(Cl)c2)C(C)c2nc3ccccc3c(=O)[nH]2)c(C)c1 (stereo not shown) [ADS-J13, N′-(3,4-dichlorophenyl)-N-[1-(4-oxo-3,4-dihydroquinazolin-2-yl)ethyl]-N-2,4-dimethyl phenylurea] | > 208 | – | > 100 | does not inhibit | > 100 | ≤ 1 | – | 39.2 ± 7.6 (≈ 81.5 µM) | – | – | – | –
O=C(O)c1ccc(-c2c3nc(c(-c4ccc(C(=O)O)cc4)c4ccc([nH]4)c(-c4ccc(C(=O)O)cc4)c4nc(c(-c5ccc(C(=O)O)cc5)c5ccc2[nH]5)C=C4)C=C3)cc1 [MTCPP, meso-tetra(4-carboxyphenyl)porphyrin, reference compound] | – | some inhibitory activity | – | – | – | – | – | – | – | – | partially inhibited | partially inhibited
O=S(=O)(O)c1ccc(-c2c3nc(c(-c4ccc(S(=O)(=O)O)cc4)c4ccc([nH]4)c(-c4ccc(S(=O)(=O)O)cc4)c4nc(c(-c5ccc(S(=O)(=O)O)cc5)c5ccc2[nH]5)C=C4)C=C3)cc1 [MTSPP, meso-tetra(4-sulphonatophenyl)porphyrin, reference compound] | – | some inhibitory activity | – | – | – | – | – | – | – | – | partially inhibited | partially inhibited
C=Cc1c(C)c2cc3nc(c(CC(=O)O)c4[nH]c(cc5nc(cc1[nH]2)C(C)=C5CC)c(C)c4C(=O)O)[C@@H](CCC(=O)O)[C@@H]3C [chlorin e6, reference compound] | – | some inhibitory activity | – | – | – | – | – | – | – | – | partially inhibited | partially inhibited
[Tyr5,12, Lys7]-polyphemusin II [Compound T-22, reference compound] | – | do not inhibit the complex formation | – | – | – | – | – | – | – | – | – | –
